{"source": "patent US6451807B1", "about": "“Methods of treating sexual dysfunction in an individual suffering from a retinal disease, class 1 congestive heart failure, or myocardial infarction using a PDE5 inhibitor” (Lilly Icos, LLC., priority 1999, dated 2002)", "key": {"[1]": {"test_system": "clinical study subjects", "assay": "Combined clinical studies, treatment-emergent adverse events", "format": "in vivo, human", "description": "However, it also was observed from the combined clinical studies that the percent of treatment-emergent adverse events increased with an increasing unit dose of the compound of structural formula (I), as illustrated in the following table."}, "[2]": {"test_system": "men with mild to severe erectile dysfunction", "assay": "Randomized, double-blind, placebo-controlled on demand study in male erectile dysfunction (Example 7)", "format": "in vivo, human", "conditions": "for patients who rated their ability to maintain an erection (IIEF Question 4) during intercourse as almost always or always / patients who rated their penetration ability (IIEF Question 3) as almost always or always: at endpoint", "experimental": "A third clinical study was a randomized, double-blind, placebo-controlled study using a compound of structural formula (I) (Study Drug) administered “on demand” to patients with male erectile dysfunction. The Study Drug was administered over a period of eight weeks in the treatment of male erectile dysfunction (ED). Erectile dysfunction (ED) is defined as the persistent inability to attain and/or maintain an erection adequate to permit satisfactory sexual performance. “On demand” dosing is defined as intermittent administration of Study Drug prior to expected sexual activity. The study population consisted of 212 men, at least 18 years of age, with mild to severe erectile dysfunction. The Study Drug was orally administered as tablets of coprecipitate made in accordance with Butler U.S. Pat. No. 5,985,326. […] Treatment with all nitrates, azole antifungals (e.g., ketoconazole or itraconazole), warfarin, erythromycin, or antiandrogens was not allowed at any time during the study. No other approved or experimental medications, treatments, or devices used to treat ED were allowed. Forty-one subjects were administered a placebo. The two primary efficacy variables were the ability of a subject to penetrate their partner and their ability to maintain an erection during intercourse, as measured by the International Index of Erectile Function (IIEF). The IIEF Questionnaire contains fifteen questions, and is a brief, reliable measure of erectile function. See R. C. Rosen et al., Urology, 49, pp. 822-830 (1997). Secondary efficacy variables were IIEF domain scores for erectile function, orgasmic function, sexual desire, intercourse satisfaction, and overall satisfaction; the patient's ability to achieve an erection, ability to insert their penis into their partner's vagina, completion of intercourse with ejaculation, satisfaction with the hardness of their erection, and overall satisfaction, all as measured by the Sexual Encounter Profile (SEP) diary; and a global assessment question asked at the end of the treatment period. The SEP is a patient diary instrument documenting each sexual encounter during the course of the study. The safety analysis of the study included all enrolled subjects, and was assessed by evaluating all reported adverse events, and changes in clinical laboratory values, vital signs, physical examination results, and electrocardiogram results."}, "[3]": {"conditions": "unit dose of about 1 to about 20 mg"}, "[4]": {"conditions": "2 to 25 mg on demand, eight weeks"}}, "data": [{"smiles": "CN1CC(=O)N2[C@H](c3ccc4c(c3)OCO4)c3[nH]c4ccccc4c3C[C@@H]2C1=O", "note": "[Compound 5, (6R-trans)-6-(1,3-benzodioxol-5-yl)-2,3,6,7,12,12a-hexahydro-2-methylpyrazino[1′,2′:1,6]pyrido[3,4-b]indole-1,4-dione]", "values": [{"measurement": "Treatment-Emergent Adverse Events (%): Back Pain", "setting": "[1]; unit dose 2 mg", "value": 3, "unit": "%"}, {"measurement": "Treatment-Emergent Adverse Events (%): Conjunctivitis", "setting": "[1]; unit dose 2 mg", "value": 0, "unit": "%"}, {"measurement": "Treatment-Emergent Adverse Events (%): Dyspepsia", "setting": "[1]; unit dose 2 mg", "value": 3, "unit": "%"}, {"measurement": "Treatment-Emergent Adverse Events (%): Eyelid Edema", "setting": "[1]; unit dose 2 mg", "value": 0, "unit": "%"}, {"measurement": "Treatment-Emergent Adverse Events (%): Flushing", "setting": "[1]; unit dose 2 mg", "value": 0, "unit": "%"}, {"measurement": "Treatment-Emergent Adverse Events (%): Headache", "setting": "[1]; unit dose 2 mg", "value": 12, "unit": "%"}, {"measurement": "Treatment-Emergent Adverse Events (%): Myalgia", "setting": "[1]; unit dose 2 mg", "value": 0, "unit": "%"}, {"measurement": "Treatment-Emergent Adverse Events (%): Rhinitis", "setting": "[1]; unit dose 2 mg", "value": 7, "unit": "%"}, {"measurement": "Treatment-Emergent Adverse Events (%): Vision Abnormalities", "setting": "[1]; unit dose 2 mg", "value": 0, "unit": "%"}, {"measurement": "Treatment-Emergent Adverse Events (%): Back Pain", "setting": "[1]; unit dose 5 mg", "value": 3, "unit": "%"}, {"measurement": "Treatment-Emergent Adverse Events (%): Conjunctivitis", "setting": "[1]; unit dose 5 mg", "value": 1, "unit": "%"}, {"measurement": "Treatment-Emergent Adverse Events (%): Dyspepsia", "setting": "[1]; unit dose 5 mg", "value": 14, "unit": "%"}, {"measurement": "Treatment-Emergent Adverse Events (%): Eyelid Edema", "setting": "[1]; unit dose 5 mg", "value": 0, "unit": "%"}, {"measurement": "Treatment-Emergent Adverse Events (%): Flushing", "setting": "[1]; unit dose 5 mg", "value": 0, "unit": "%"}, {"measurement": "Treatment-Emergent Adverse Events (%): Headache", "setting": "[1]; unit dose 5 mg", "value": 10, "unit": "%"}, {"measurement": "Treatment-Emergent Adverse Events (%): Myalgia", "setting": "[1]; unit dose 5 mg", "value": 3, "unit": "%"}, {"measurement": "Treatment-Emergent Adverse Events (%): Rhinitis", "setting": "[1]; unit dose 5 mg", "value": 3, "unit": "%"}, {"measurement": "Treatment-Emergent Adverse Events (%): Vision Abnormalities", "setting": "[1]; unit dose 5 mg", "value": 0, "unit": "%"}, {"measurement": "Treatment-Emergent Adverse Events (%): Back Pain", "setting": "[1]; unit dose 10 mg", "value": 15, "unit": "%"}, {"measurement": "Treatment-Emergent Adverse Events (%): Conjunctivitis", "setting": "[1]; unit dose 10 mg", "value": 1, "unit": "%"}, {"measurement": "Treatment-Emergent Adverse Events (%): Dyspepsia", "setting": "[1]; unit dose 10 mg", "value": 13, "unit": "%"}, {"measurement": "Treatment-Emergent Adverse Events (%): Eyelid Edema", "setting": "[1]; unit dose 10 mg", "value": 1, "unit": "%"}, {"measurement": "Treatment-Emergent Adverse Events (%): Flushing", "setting": "[1]; unit dose 10 mg", "value": "<1", "unit": "%"}, {"measurement": "Treatment-Emergent Adverse Events (%): Headache", "setting": "[1]; unit dose 10 mg", "value": 23, "unit": "%"}, {"measurement": "Treatment-Emergent Adverse Events (%): Myalgia", "setting": "[1]; unit dose 10 mg", "value": 9, "unit": "%"}, {"measurement": "Treatment-Emergent Adverse Events (%): Rhinitis", "setting": "[1]; unit dose 10 mg", "value": 4, "unit": "%"}, {"measurement": "Treatment-Emergent Adverse Events (%): Vision Abnormalities", "setting": "[1]; unit dose 10 mg", "value": 0, "unit": "%"}, {"measurement": "Treatment-Emergent Adverse Events (%): Back Pain", "setting": "[1]; unit dose 25 mg", "value": 18, "unit": "%"}, {"measurement": "Treatment-Emergent Adverse Events (%): Conjunctivitis", "setting": "[1]; unit dose 25 mg", "value": 0, "unit": "%"}, {"measurement": "Treatment-Emergent Adverse Events (%): Dyspepsia", "setting": "[1]; unit dose 25 mg", "value": 19, "unit": "%"}, {"measurement": "Treatment-Emergent Adverse Events (%): Eyelid Edema", "setting": "[1]; unit dose 25 mg", "value": 1, "unit": "%"}, {"measurement": "Treatment-Emergent Adverse Events (%): Flushing", "setting": "[1]; unit dose 25 mg", "value": 0, "unit": "%"}, {"measurement": "Treatment-Emergent Adverse Events (%): Headache", "setting": "[1]; unit dose 25 mg", "value": 29, "unit": "%"}, {"measurement": "Treatment-Emergent Adverse Events (%): Myalgia", "setting": "[1]; unit dose 25 mg", "value": 16, "unit": "%"}, {"measurement": "Treatment-Emergent Adverse Events (%): Rhinitis", "setting": "[1]; unit dose 25 mg", "value": 4, "unit": "%"}, {"measurement": "Treatment-Emergent Adverse Events (%): Vision Abnormalities", "setting": "[1]; unit dose 25 mg", "value": 0, "unit": "%"}, {"measurement": "Treatment-Emergent Adverse Events (%): Back Pain", "setting": "[1]; unit dose 50 mg", "value": 24, "unit": "%"}, {"measurement": "Treatment-Emergent Adverse Events (%): Conjunctivitis", "setting": "[1]; unit dose 50 mg", "value": 2, "unit": "%"}, {"measurement": "Treatment-Emergent Adverse Events (%): Dyspepsia", "setting": "[1]; unit dose 50 mg", "value": 20, "unit": "%"}, {"measurement": "Treatment-Emergent Adverse Events (%): Eyelid Edema", "setting": "[1]; unit dose 50 mg", "value": 2, "unit": "%"}, {"measurement": "Treatment-Emergent Adverse Events (%): Flushing", "setting": "[1]; unit dose 50 mg", "value": 3, "unit": "%"}, {"measurement": "Treatment-Emergent Adverse Events (%): Headache", "setting": "[1]; unit dose 50 mg", "value": 34, "unit": "%"}, {"measurement": "Treatment-Emergent Adverse Events (%): Myalgia", "setting": "[1]; unit dose 50 mg", "value": 20, "unit": "%"}, {"measurement": "Treatment-Emergent Adverse Events (%): Rhinitis", "setting": "[1]; unit dose 50 mg", "value": 0, "unit": "%"}, {"measurement": "Treatment-Emergent Adverse Events (%): Vision Abnormalities", "setting": "[1]; unit dose 50 mg", "value": 0, "unit": "%"}, {"measurement": "Treatment-Emergent Adverse Events (%): Back Pain", "setting": "[1]; unit dose 100 mg", "value": 22, "unit": "%"}, {"measurement": "Treatment-Emergent Adverse Events (%): Conjunctivitis", "setting": "[1]; unit dose 100 mg", "value": 5, "unit": "%"}, {"measurement": "Treatment-Emergent Adverse Events (%): Dyspepsia", "setting": "[1]; unit dose 100 mg", "value": 25, "unit": "%"}, {"measurement": "Treatment-Emergent Adverse Events (%): Eyelid Edema", "setting": "[1]; unit dose 100 mg", "value": 3, "unit": "%"}, {"measurement": "Treatment-Emergent Adverse Events (%): Flushing", "setting": "[1]; unit dose 100 mg", "value": 7, "unit": "%"}, {"measurement": "Treatment-Emergent Adverse Events (%): Headache", "setting": "[1]; unit dose 100 mg", "value": 46, "unit": "%"}, {"measurement": "Treatment-Emergent Adverse Events (%): Myalgia", "setting": "[1]; unit dose 100 mg", "value": 29, "unit": "%"}, {"measurement": "Treatment-Emergent Adverse Events (%): Rhinitis", "setting": "[1]; unit dose 100 mg", "value": 2, "unit": "%"}, {"measurement": "Treatment-Emergent Adverse Events (%): Vision Abnormalities", "setting": "[1]; unit dose 100 mg", "value": 0, "unit": "%"}, {"measurement": "flushing", "setting": "[1]; [3]", "value": "flushing was essentially eliminated"}, {"measurement": "vision abnormalities", "setting": "[1]; [3]", "value": "no vision abnormalities were reported"}, {"measurement": "patients who rated their ability to maintain an erection (IIEF Question 4) during intercourse as almost always or always", "setting": "[2]; 2 mg group", "value": 19.5, "unit": "%"}, {"measurement": "patients who rated their penetration ability (IIEF Question 3) as almost always or always", "setting": "[2]; 2 mg group", "value": 38.1, "unit": "%"}, {"measurement": "sexual performance of men with erectile dysfunction (IIEF, patient diaries, global assessment)", "setting": "[2]; 2 mg, 5 mg, 10 mg and 25 mg taken on demand", "value": "significant improvement, relative to placebo"}, {"measurement": "patients who rated their ability to maintain an erection (IIEF Question 4) during intercourse as almost always or always", "setting": "[2]; 5 mg group", "value": 32.6, "unit": "%"}, {"measurement": "patients who rated their penetration ability (IIEF Question 3) as almost always or always", "setting": "[2]; 5 mg group", "value": 48.8, "unit": "%"}, {"measurement": "patients who rated their ability to maintain an erection (IIEF Question 4) during intercourse as almost always or always", "setting": "[2]; 10 mg group", "value": 39.0, "unit": "%"}, {"measurement": "patients who rated their penetration ability (IIEF Question 3) as almost always or always", "setting": "[2]; 10 mg group", "value": 51.2, "unit": "%"}, {"measurement": "patients who rated their ability to maintain an erection (IIEF Question 4) during intercourse as almost always or always", "setting": "[2]; 25 mg group", "value": 69.0, "unit": "%"}, {"measurement": "patients who rated their penetration ability (IIEF Question 3) as almost always or always", "setting": "[2]; 25 mg group", "value": 83.7, "unit": "%"}, {"measurement": "adverse events related to color vision disturbances", "setting": "[2]; [4]", "value": "no adverse events related to color vision disturbances were reported"}, {"measurement": "severity of adverse events", "setting": "[2]; [4]", "value": "mild or moderate in severity"}, {"measurement": "change in penetration ability versus placebo (IIEF Question 3)", "setting": "[2]; all dose levels (2, 5, 10, 25 mg)", "value": "statistically significant differences"}, {"measurement": "change in penetration ability versus placebo (comparison reported for IIEF Question 4)", "setting": "[2]; the three higher dose levels", "value": "statistically significant differences"}]}]}
